Among the data in ChEMBL document CHEMBL2074505, “Imaging reversal of multidrug resistance in living mice with bioluminescence: MDR1 P-glycoprotein transports coelenterazine” (Proc Natl Acad Sci U S A, 2004) are EC50 values, retold here.

This assay has as its target ATP-dependent translocase ABCB1 (Homo sapiens, UniProt P08183). Nature of the assay: TP_TRANSPORTER: efflux in KB 8-5-11 Rluc cells. In kind it is functional, cell-based.

One may read the EC50 as the concentration at which the effect is half-maximal.

Sequence of ATP-dependent translocase ABCB1 (P08183 whole entry): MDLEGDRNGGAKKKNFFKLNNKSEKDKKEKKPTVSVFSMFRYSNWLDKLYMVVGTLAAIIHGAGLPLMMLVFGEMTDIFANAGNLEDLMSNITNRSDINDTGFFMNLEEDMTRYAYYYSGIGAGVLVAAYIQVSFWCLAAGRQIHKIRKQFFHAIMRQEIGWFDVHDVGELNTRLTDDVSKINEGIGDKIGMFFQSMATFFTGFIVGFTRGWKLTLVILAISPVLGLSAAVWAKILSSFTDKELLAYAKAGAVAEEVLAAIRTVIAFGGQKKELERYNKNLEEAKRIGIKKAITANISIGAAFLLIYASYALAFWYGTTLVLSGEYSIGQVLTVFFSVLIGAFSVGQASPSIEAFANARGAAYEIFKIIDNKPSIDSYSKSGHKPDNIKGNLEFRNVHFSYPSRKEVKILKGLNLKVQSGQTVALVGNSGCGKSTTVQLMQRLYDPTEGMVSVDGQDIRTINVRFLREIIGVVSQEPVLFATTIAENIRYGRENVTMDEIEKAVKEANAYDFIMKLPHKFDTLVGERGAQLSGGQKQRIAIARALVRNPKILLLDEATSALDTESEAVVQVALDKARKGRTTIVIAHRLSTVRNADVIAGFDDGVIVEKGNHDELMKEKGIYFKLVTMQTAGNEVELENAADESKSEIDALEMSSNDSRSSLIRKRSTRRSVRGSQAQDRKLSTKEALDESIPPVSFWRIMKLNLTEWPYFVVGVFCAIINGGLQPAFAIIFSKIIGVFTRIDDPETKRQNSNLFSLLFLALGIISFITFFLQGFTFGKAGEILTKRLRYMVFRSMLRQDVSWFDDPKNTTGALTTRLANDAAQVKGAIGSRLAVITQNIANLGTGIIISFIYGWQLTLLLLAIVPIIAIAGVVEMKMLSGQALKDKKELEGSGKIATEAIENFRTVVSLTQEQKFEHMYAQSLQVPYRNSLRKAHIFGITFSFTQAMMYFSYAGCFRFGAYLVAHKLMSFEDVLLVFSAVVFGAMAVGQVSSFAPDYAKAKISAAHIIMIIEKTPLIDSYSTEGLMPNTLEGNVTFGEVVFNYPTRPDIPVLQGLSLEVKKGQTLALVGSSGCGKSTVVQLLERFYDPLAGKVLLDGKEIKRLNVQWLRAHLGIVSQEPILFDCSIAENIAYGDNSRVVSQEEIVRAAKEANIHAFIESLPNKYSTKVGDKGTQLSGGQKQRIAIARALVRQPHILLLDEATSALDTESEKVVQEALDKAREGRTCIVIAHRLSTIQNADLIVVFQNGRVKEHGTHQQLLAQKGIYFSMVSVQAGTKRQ

`Oc1ccc(Cc2nc3c(Cc4ccccc4)nc(-c4ccc(O)cc4)cn3c2O)cc1` [COELENTERAZINE]: the EC50 is 147 nM.
